The text below walks through data of patent publication US20210047278A1, “E3 UBIQUITIN LIGASE AGONISTS, PHARMACEUTICAL COMPOSITIONS INCLUDING THE E3 UBIQUITIN LIGASE AGONISTS, RELATED METHODS OF USE” (FRED HUTCHINSON CANCER RESEARCH CENTER, priority 2018, published 2021).

Type in all cases: binding
The target in assay [1] is T1, FBW7^ARG+pCycE (Homo sapiens, UniProt Q969H0, R505L).
T1 construct: GST (TEV site and flexible linker) (N, cleaved yes); made in house; host or cells: SF9 insect cells (baculovirus)
The assay is described as follows: FBW7^ARG-cyclin E agonist ALPHAscreen (primary PRUN, confirmation CRUN1, dose-response DRUN). The following applies: for EC50 / Emax: DRUN dose-response; for Emax: relative to WT-FBW7+pCycE, read-out: FBW7 ACT Averaged Max % Response. The text has this:
FBW7^ARG refers to a class of loss-of-function mutations of the of FBW7 ubiquitin ligase that target a key phosphate-binding arginine residue in the FBW7 substrate-binding domain. These mutations are commonly found in human cancers and promote tumorigenesis by impairing the interactions between FBW7 and its substrates, such as cyclin E and Myc. Described herein is a high throughput screen (HTS) to identify agonists, such as small molecules, that augment FBW7^ARG-substrate binding. In an embodiment, the HTS is based on the Amplified Luminescent Proximity Homogenous Assay (ALPHAscreen) because it detects protein-protein interactions with a large dynamic range. ALPHAscreen is a bead-based proximity assay wherein donor beads contain a photosensitizer, phthalocyanine, and acceptor beads contain thioxene, anthracene and rubrenein in sufficient quantities to generate a chemiluminescence/fluorescence reaction (FIG. 4A). Upon excitation with excitation illumination, such as light having a wavelength of 680 nm, of the donor beads, phthalocyanine converts ambient oxygen to singlet oxygen, which can diffuse approximately 200 nm within its 4-microsecond half-life. If an acceptor bead is in close proximity to an excited donor bead, singlet oxygen transfers its energy to the acceptor, resulting in emitted light at a broad bandwidth of −520-620 nm. The HTS-compatible FBW7/cyclin E ALPHAscreen assay described herein uses streptavidin coupled donor beads and Ni-chelate acceptor beads. In this assay, biotinylated cyclin E phosphopeptide and the His-tagged FBW7 mutant protein have high affinity for the donor and acceptor beads, respectively (FIG. 4B). A small molecule that is able to bridge the binding sites of the peptide and the mutant protein (or induce a conformational change that increases affinity of the protein for the peptide) will bring the donor and acceptor beads in close proximity to each other, resulting in an ALPHA signal. As designed, this assay format is a very sensitive, non-radioactive, homogenous “mix-and-read” format that is HT compatible in 384 and 1536 well formats.
In the 384-well screening assay, 10 uL of acceptor beads with 25 nM of the FBW7^ARG (RLFBW7) are dispensed to test wells; acceptor beads with 25 nM of the wt-FBW7 protein (WTFBW7) are dispensed to control wells. Test compounds are then added by pintool transfer and the mixture is incubated for 30 minutes. An additional 10 uL of donor beads with 25 nM cyclin E phosphopeptide is then added to all wells and the plate is incubated for 4 hours before the ALPHA signal is measured.
In preparation for large-scale screening, the assay was miniaturized to a 1536-well format. The miniaturized screen performed outstandingly in all respects. The screen was enhanced with respect to several parameters and assayed its performance using mutant FBW7 and wt-FBW7, as well as non-specific assay agonists. […] For example, the following Z′-scores/FBW7 concentrations were obtained: 6.25 nM/Z′=0.62, 12.5 nm/Z′=0.85, 25.0 nM/Z′=0.84.
1. Add 2.5 uL of RLFBW7/cycE˜P/Ni beads: Final [25 nM/25 nM/10 ug/ml].
2. Add 2.5 uL of WTFBW7/cycE˜P/Ni beads: Final [25 nM/25 nM/10 ug/ml].
4. Add 2.5 uL of SA beads to all wells Final [10 ug/ml],
5. Add 30 nL of compounds,
6. Read ALPHAscreen on Envision
The large-scale FBW7 agonist ALPHAscreen was completed using FBW7^ARG and a phosphorylated cyclin E (pCycE) degron peptide. Wt-FBW7+pCycE-peptide was the “high control”, and Wt-FBW7+unphosph. CycE peptide was the “low control”. The screen was performed on the 645,000-compound Scripps Diversity Library using 1536-well format and drug concentrations of 26.1 μM. An algorithm aided hit identification based on the average percent activation for all compounds and their standard deviation.
A confirmation assay of all 853 compounds in triplicate using a single concentration (26.1 μM). […]
(Alpha assays give light when donor and acceptor beads are brought close together.)

For assay [2], the system named is pCycE alone. The assay is described as follows: Counterscreen 2 ALPHAscreen with cyclin E phosphopeptide alone (CSRUN2/DCSRUN2). The following applies: for CyCEP ACT DCSRUN2 Averaged Max % Response: activation relative to WT-FBW7+pCycE, averaged maximum; for EC50: dose-response, triplicate, 10 point 3-fold dilutional series, read-out: CyCEP ACT DCSRUN2 Final EC50. As for the experimental part:
(§1) Studies in 384-well format were performed using the ENVISION system. Reagent concentrations (see FIG. 6A), order of addition, pH (see FIG. 6B), and reducing agent were altered with the goal of enhancing the dynamic range between wt-FBW7 (the positive control) and FBW7^ARG (FIG. 6 and not shown). Wt-FBW7 produced a signal 100× greater with phosphorylated cyclin E degron peptide compared with unphosphorylated, which represents the assay's maximum range (FIG. 6C). […] This assay thus detects the residual affinity of the FBW7^ARG-substrate interaction, which, as predicted, is stronger than wt-FBW7 protein with unphosphorylated cyclin E peptide. Concurrent with this primary assay, counter ALPHAscreens were developed which omitted either FBW7 or peptide (to eliminate hits that are general ALPHAscreen agonists), or used an irrelevant phosphopeptide (to eliminate compounds that simply augment binding to phosphopeptides). […]
(§2) The 77 hits were subjected to a dose-response assay in which each compound was tested in triplicate in a 10 point 3-fold dilutional series, to a maximum concentration of approximately 87 μM. Three screens were performed, using FBW7^ARG+pCycE (DRUN), FBW7^ARG (DCSRUN1), or pCycE alone (DCSRUN2). See TABLES 2, 3, and 4, respectively, and FIG. 10A. All of the assays performed extremely well, and threshold of 10% activation (relative to WT-FBW7+pCycE) was set as positive. […] Many hits fell into shared structure cluster ID groups, reinforcing the idea that they function as specific agonists (see below and TABLE 5).

In assay [3] the target is T2, FBW7^ARG (RLFBW7) alone (Homo sapiens, UniProt Q969H0, R505L).
T2 construct: GST (TEV site and flexible linker) (N, cleaved yes); made in house; host or cells: SF9 insect cells (baculovirus)
The assay is described as follows: Counterscreen 1 ALPHAscreen with FBW7^ARG alone (CSRUN1/DCSRUN1). The following applies: dose-response counterscreen; for Emax: read-out: RLFBW7 ACT DCSRUN1 Averaged Max % Response. As for the experimental part: as §1, §2
(The purpose of a counterscreen is to sort out artefacts and off-target activity.)

Where [4] appears, read: raw curve fit, read-out: FBW7 ACT EC50 Curve Fit Raw, Molar.
Setting [5] is: triplicate, 10 point 3-fold dilution, max approx. 87 μM, read-out: FBW7 ACT Final EC50, Molar.
[6] abbreviates: confirmation assay, triplicate, single concentration 26.1 μM, read-out: FBW7 ACT CRUN1 Avg % Response and Stdev.
The mark [7] stands for this setting: primary screen, 1536-well, 26.1 μM, FBW7^ARG + pCycE degron peptide, high control wt-FBW7+pCycE, read-out: FBW7 ACT PRUN % Response.
Where [8] appears, read: raw curve fit, read-out: RLFBW7 ACT DCSRUN1 EC50 Curve Fit Raw.
Setting [9] is: read-out: RLFBW7 ACT DCSRUN1 Final EC50.

Read-outs that look alike come from different tables or passages of the source. Where only a bound is given, the exact number is not on record here.

T2 sequence (Q969H0 64-707 R505L): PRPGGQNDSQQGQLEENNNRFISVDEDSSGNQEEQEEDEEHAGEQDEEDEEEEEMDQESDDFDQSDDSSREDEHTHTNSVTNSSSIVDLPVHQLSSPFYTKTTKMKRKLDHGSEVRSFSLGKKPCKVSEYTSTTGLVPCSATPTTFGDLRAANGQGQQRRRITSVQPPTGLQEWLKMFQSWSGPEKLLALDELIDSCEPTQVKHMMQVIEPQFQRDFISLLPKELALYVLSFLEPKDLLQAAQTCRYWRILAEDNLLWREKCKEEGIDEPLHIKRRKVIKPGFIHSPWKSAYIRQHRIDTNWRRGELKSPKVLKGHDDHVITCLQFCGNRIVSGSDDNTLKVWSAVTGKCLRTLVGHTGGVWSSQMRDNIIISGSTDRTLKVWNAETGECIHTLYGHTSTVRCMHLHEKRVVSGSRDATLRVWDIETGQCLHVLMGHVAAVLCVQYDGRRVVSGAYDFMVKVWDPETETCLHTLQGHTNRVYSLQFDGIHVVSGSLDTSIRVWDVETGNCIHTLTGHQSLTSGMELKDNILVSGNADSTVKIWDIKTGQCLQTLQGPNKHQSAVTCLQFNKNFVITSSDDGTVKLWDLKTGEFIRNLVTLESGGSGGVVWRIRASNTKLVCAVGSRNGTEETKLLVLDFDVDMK
T2 sequence (P63208 2-163 partner): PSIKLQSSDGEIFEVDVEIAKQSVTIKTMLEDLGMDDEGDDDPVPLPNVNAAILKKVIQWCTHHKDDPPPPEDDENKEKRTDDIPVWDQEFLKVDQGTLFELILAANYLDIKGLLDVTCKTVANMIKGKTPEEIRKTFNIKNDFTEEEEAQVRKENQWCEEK
T1 sequence (Q969H0 64-707 R505L): as the sequence (Q969H0 64-707 R505L) above
T1 sequence (P63208 2-163 partner): as the sequence (P63208 2-163 partner) above

Turning to `CC1=C(C(=O)OC(C)C)C(c2ccncc2)C2=C(CC(c3ccccc3)CC2=O)N1` (centres unmarked) [SR-01000217822-2], the EC50 (commonly the midpoint of the concentration-response curve) in assay [1] (setting [4]) was 23 µM; in assay [1] (setting [5]) it was greater than 60.9 µM; in assay [2] it was greater than 60.9 µM; in assay [3] (setting [8]), 25.2 µM; in assay [3] (setting [9]), greater than 60.9 µM. Also, the Emax in assay [1] is 7.67%; in assay [3] it was 0.88%. In addition, the activation at 26.1 µM in assay [1] (setting [6]) was determined as 6.36 ± 0.25%; in assay [1] (setting [7]), 2.06%. Moreover, in assay [2], the “CyCEP ACT DCSRUN2 Averaged Max % Response” value was 0.03%.
For the compound `CCN(CC)c1ccc2cc(-c3nc(C)cs3)c(=O)oc2c1` [SR-01000312020-1], the EC50 in assay [1] (setting [4]) was 8.2 µM; in assay [1] (setting [5]) it was greater than 65.3 µM; in assay [2], greater than 65.3 µM; in assay [3] (setting [8]), 11.6 µM; in assay [3] (setting [9]), greater than 65.3 µM. For the same compound, the values for the Emax in assay [1] and in assay [3] were 13.9% and 6.67%, respectively. The activation at 26.1 µM in assay [1] (setting [6]) amounted to 5.16 ± 7.04%; in assay [1] (setting [7]), 3.44%. Also, in assay [2], the “CyCEP ACT DCSRUN2 Averaged Max % Response” value is 0.77%.
With `Fc1ccccc1CSc1nnnn1-c1ccccc1F` [SR-01000432842-1], the 50% effective concentration (EC50) in assay [1] (setting [4]) was 0.0082 µM; in assay [1] (setting [5]), greater than 72.9 µM; in assay [2] it was greater than 72.9 µM; in assay [3] (setting [8]), 0.0102 µM; in assay [3] (setting [9]), greater than 72.9 µM. Besides, the Emax is 8.63% in assay [1] and 1.65% in assay [3]. Moreover, the activation at 26.1 µM in assay [1] (setting [6]) was found to be 5.32 ± 2.7%; in assay [1] (setting [7]), 2.34%. In assay [2], the “CyCEP ACT DCSRUN2 Averaged Max % Response” value is 2.47%.
Take `CCSCCOC(=O)C1=C(C)NC2=C(C(=O)CC(c3ccccc3)C2)C1c1ccc(OC)cc1OC` (centres unmarked) [SR-01000425645-1]: the concentration for a half-maximal effect (EC50) is 0.0036 µM in assay [1] (setting [4]); greater than 41.4 µM in assay [1] (setting [5]); greater than 41.4 µM in assay [2]; 0.0044 µM in assay [3] (setting [8]); greater than 41.4 µM in assay [3] (setting [9]). For the same compound, the figures for the Emax in assay [1] and in assay [3] were 7.92% and 0.91%, respectively. The activation at 26.1 µM in assay [1] (setting [6]) was determined as 5.16 ± 0.69%; in assay [1] (setting [7]), 2.28%. Also, in assay [2], the “CyCEP ACT DCSRUN2 Averaged Max % Response” value amounted to 2.61%.
For the compound `CCN(CC)c1ccc2cc(-c3ccccn3)c(=O)oc2c1` [SR-01000033354-1], the EC50 in assay [1] (setting [4]) was 24.5 µM; in assay [1] (setting [5]), greater than 70.9 µM; in assay [2] it was greater than 70.9 µM; in assay [3] (setting [8]), 19.4 µM; in assay [3] (setting [9]) it was greater than 70.9 µM. Also, the Emax in assay [1] worked out at 21.9%; in assay [3], 12%. Moreover, the figures for the activation at 26.1 µM in assay [1] (setting [6]) and in assay [1] (setting [7]) were 3.34 ± 0.7% and 2.67%, respectively. For the same compound, in assay [2], the “CyCEP ACT DCSRUN2 Averaged Max % Response” value is 0.43%.
